Assay results reported in article PMC3362725, “An open-label, phase 1 study evaluating safety, tolerability, and pharmacokinetics of linifanib (ABT-869) in Japanese patients with solid tumors” (Cancer Chemotherapy and Pharmacology, 2012).
Values joined by “and” are separate entries in the source; they are usually repeats but may differ in a detail not shown here. Equal values may be shown once. Marks after values point to notes of the source that are not given here.

Test: Safety and tolerability: adverse events per CTCAE v3, dose-limiting toxicity, phase 1 study
Type: in vivo, human (Japanese patients with solid tumors)
Settings: for dose-limiting toxicity observed: one patient
Method: A standard 3 + 3 design determined the dose level assignment. Patients were assigned to one of four sequential dose cohorts of once-a-day dose regimen of oral linifanib: 0.05, 0.10, 0.20, or 0.25 mg/kg, administered in the morning. […] Dose-limiting toxicity (DLT) was defined as Grade 4 neutropenia lasting >7 days, Grade 4 thrombocytopenia or decreased hemoglobin, Grade 3 or greater thrombocytopenia (if blood transfusion was required), febrile neutropenia, non-hematological toxicity except for manageable nausea, vomiting, anorexia, diarrhea, constipation or electrolyte abnormality, or a toxicity that required suspension of study drug for >7 days.
Patients self-administered linifanib once daily, on a 21-day cycle after fasting, and treatment continued until disease progression or intolerable toxicity. […] The initial oral dose, 2.5–25.0 mg in increments of 2.5 mg, was determined by the patients’ weights. […] The dose was reduced by 5.0 mg for patients ≥86 kg in the 0.10 mg/kg cohort, for patients in the 0.20 mg/kg cohort who were ≥81 kg at the first reduction and 61–80 and ≥96 kg at the 2nd reduction, and for patients in the 0.25 mg/kg cohort who were ≥66 kg at the first reduction and ≥86 kg at the second reduction. Patients were discontinued if they required dose reduction, specified by cohort: Any reduction (0.05 mg/kg cohort); >1 reduction (0.10 mg/kg cohort, and patients ≤31 kg in the 0.20 mg/kg cohort with an initial 5 mg dose); >2 reductions (0.25 mg/kg cohort, and patients ≥32 kg in the 0.20 mg/kg cohort with an initial ≥7.5 mg dose).
Baseline evaluations included physical examination, body weight, vital signs, 12-lead electrocardiogram, ECOG PS assessment, pregnancy test, laboratory tests, and multiple-gated acquisition scan/echocardiogram. Tumor response and/or disease progression was assessed by computerized tomography (CT) scan or magnetic resonance imaging (MRI) per RECIST [20] at screening and on Day (D) 1 of every second cycle prior to the subsequent treatment period, until tumor progression or until final visit. Complete response and partial response (PR) were defined according to RECIST [20]; objective response rate (ORR) was defined as the proportion of patients with best response of PR or CR among the study population. Safety assessments included laboratory test results and adverse events (AEs), which were graded according to CTCAE v3 [18] and coded by medical dictionary of regulatory activities (MedDRA) 1.0.

Cc1ccc(F)c(NC(=O)Nc2ccc(-c3cccc4[nH]nc(N)c34)cc2)c1 [linifanib, N-(4-(3-amino-1H-indazol-4-yl)phenyl)-N’-(2-fluoro-5-methylphenyl)urea]
Grade 3 linifanib-related AEs (0.05 mg/kg dose): no Grade 3 linifanib-related AEs
ALT increased, linifanib-related AE, patients (0.05 mg/kg n = 3, G1): 1
AST increased, linifanib-related AE, patients (0.05 mg/kg n = 3, G1): 1
Anorexia, linifanib-related AE, patients (0.05 mg/kg n = 3, G1): 1
Blood ALKP increased, linifanib-related AE, patients (0.05 mg/kg n = 3, G1): 1
Blood TG increased, linifanib-related AE, patients (0.05 mg/kg n = 3, G1): 1
Blood cholesterol increased, linifanib-related AE, patients (0.05 mg/kg n = 3, G1): 2
Blood urine present, linifanib-related AE, patients (0.05 mg/kg n = 3, G1): 1
Diarrhea, linifanib-related AE, patients (0.05 mg/kg n = 3, G1): 1
Hypertension, linifanib-related AE, patients (0.05 mg/kg n = 3, G1): 1
Neutropenia, linifanib-related AE, patients (0.05 mg/kg n = 3, G1): 2
Rash, linifanib-related AE, patients (0.05 mg/kg n = 3, G1): 1
Weight decreased, linifanib-related AE, patients (0.05 mg/kg n = 3, G1): 2
Blood ALKP increased, linifanib-related AE, patients (0.05 mg/kg n = 3, G2): 1
Hypertension, linifanib-related AE, patients (0.05 mg/kg n = 3, G2): 2
dose-limiting toxicity observed (0.10 mg/kg cohort): Grade 3 ALT increase
Grade 3 linifanib-related AEs (0.10 mg/kg dose): three
ALT increased, linifanib-related AE, patients (0.10 mg/kg n = 6, G1): 2
AST increased, linifanib-related AE, patients (0.10 mg/kg n = 6, G1): 4
Anorexia, linifanib-related AE, patients (0.10 mg/kg n = 6, G1): 2
Blood ALKP increased, linifanib-related AE, patients (0.10 mg/kg n = 6, G1): 1
Blood TG increased, linifanib-related AE, patients (0.10 mg/kg n = 6, G1): 3
Blood TSH increased, linifanib-related AE, patients (0.10 mg/kg n = 6, G1): 3
Blood cholesterol increased, linifanib-related AE, patients (0.10 mg/kg n = 6, G1): 3
Blood urine present, linifanib-related AE, patients (0.10 mg/kg n = 6, G1): 2
Diarrhea, linifanib-related AE, patients (0.10 mg/kg n = 6, G1): 3
Fatigue, linifanib-related AE, patients (0.10 mg/kg n = 6, G1): 1
GGT increased, linifanib-related AE, patients (0.10 mg/kg n = 6, G1): 3
Leukopenia, linifanib-related AE, patients (0.10 mg/kg n = 6, G1): 2
Neutropenia, linifanib-related AE, patients (0.10 mg/kg n = 6, G1): 1
Proteinuria, linifanib-related AE, patients (0.10 mg/kg n = 6, G1): 1
Rash, linifanib-related AE, patients (0.10 mg/kg n = 6, G1): 3
Thrombocytopenia, linifanib-related AE, patients (0.10 mg/kg n = 6, G1): 1
Weight decreased, linifanib-related AE, patients (0.10 mg/kg n = 6, G1): 2
Blood TG increased, linifanib-related AE, patients (0.10 mg/kg n = 6, G2): 1
Fatigue, linifanib-related AE, patients (0.10 mg/kg n = 6, G2): 1
GGT increased, linifanib-related AE, patients (0.10 mg/kg n = 6, G2): 1
Hypertension, linifanib-related AE, patients (0.10 mg/kg n = 6, G2): 5
Leukopenia, linifanib-related AE, patients (0.10 mg/kg n = 6, G2): 1
Palmar-plantar erythrodysaesthesia, linifanib-related AE, patients (0.10 mg/kg n = 6, G2): 3
Proteinuria, linifanib-related AE, patients (0.10 mg/kg n = 6, G2): 2
Thrombocytopenia, linifanib-related AE, patients (0.10 mg/kg n = 6, G2): 1
Weight decreased, linifanib-related AE, patients (0.10 mg/kg n = 6, G2): 1
Neutropenia, linifanib-related AE, patients (0.10 mg/kg n = 6, G3): 1
Proteinuria, linifanib-related AE, patients (0.10 mg/kg n = 6, G3): 1
ALT increased, linifanib-related AE, patients (0.20 mg/kg n = 3, G1): 2
AST increased, linifanib-related AE, patients (0.20 mg/kg n = 3, G1): 2
Anorexia, linifanib-related AE, patients (0.20 mg/kg n = 3, G1): 1
Blood ALKP increased, linifanib-related AE, patients (0.20 mg/kg n = 3, G1): 1
Blood TG increased, linifanib-related AE, patients (0.20 mg/kg n = 3, G1): 3
Blood TSH increased, linifanib-related AE, patients (0.20 mg/kg n = 3, G1): 3
Blood cholesterol increased, linifanib-related AE, patients (0.20 mg/kg n = 3, G1): 2
Blood urine present, linifanib-related AE, patients (0.20 mg/kg n = 3, G1): 2
Diarrhea, linifanib-related AE, patients (0.20 mg/kg n = 3, G1): 1
Fatigue, linifanib-related AE, patients (0.20 mg/kg n = 3, G1): 1
GGT increased, linifanib-related AE, patients (0.20 mg/kg n = 3, G1): 1
Leukopenia, linifanib-related AE, patients (0.20 mg/kg n = 3, G1): 2
Rash, linifanib-related AE, patients (0.20 mg/kg n = 3, G1): 1
T-wave abnormality, linifanib-related AE, patients (0.20 mg/kg n = 3, G1): 1
Weight decreased, linifanib-related AE, patients (0.20 mg/kg n = 3, G1): 1
Anorexia, linifanib-related AE, patients (0.20 mg/kg n = 3, G2): 1
Blood cholesterol increased, linifanib-related AE, patients (0.20 mg/kg n = 3, G2): 1
Fatigue, linifanib-related AE, patients (0.20 mg/kg n = 3, G2): 1
Hypertension, linifanib-related AE, patients (0.20 mg/kg n = 3, G2): 2
Neutropenia, linifanib-related AE, patients (0.20 mg/kg n = 3, G2): 2
Palmar-plantar erythrodysaesthesia, linifanib-related AE, patients (0.20 mg/kg n = 3, G2): 3
Thrombocytopenia, linifanib-related AE, patients (0.20 mg/kg n = 3, G2): 2
Weight decreased, linifanib-related AE, patients (0.20 mg/kg n = 3, G2): 2
Diarrhea, linifanib-related AE, patients (0.20 mg/kg n = 3, G3): 1
Hypertension, linifanib-related AE, patients (0.20 mg/kg n = 3, G3): 1
Proteinuria, linifanib-related AE, patients (0.20 mg/kg n = 3, G3): 1
dose-limiting toxicity observed (0.25 mg/kg cohort, dose interruption >7 days, discontinuation on D29): Grade 1 T-wave inversion
Grade 3 linifanib-related AEs (0.25 mg/kg dose): four
ALT increased, linifanib-related AE, patients (0.25 mg/kg n = 6, G1): 3
AST increased, linifanib-related AE, patients (0.25 mg/kg n = 6, G1): 6
Blood ALKP increased, linifanib-related AE, patients (0.25 mg/kg n = 6, G1): 4
Blood TG increased, linifanib-related AE, patients (0.25 mg/kg n = 6, G1): 2
Blood TSH increased, linifanib-related AE, patients (0.25 mg/kg n = 6, G1): 1
Blood cholesterol increased, linifanib-related AE, patients (0.25 mg/kg n = 6, G1): 2
Blood urine present, linifanib-related AE, patients (0.25 mg/kg n = 6, G1): 4
Fatigue, linifanib-related AE, patients (0.25 mg/kg n = 6, G1): 4
GGT increased, linifanib-related AE, patients (0.25 mg/kg n = 6, G1): 3
Leukopenia, linifanib-related AE, patients (0.25 mg/kg n = 6, G1): 3
Neutropenia, linifanib-related AE, patients (0.25 mg/kg n = 6, G1): 2
Proteinuria, linifanib-related AE, patients (0.25 mg/kg n = 6, G1): 1
Rash, linifanib-related AE, patients (0.25 mg/kg n = 6, G1): 6
Thrombocytopenia, linifanib-related AE, patients (0.25 mg/kg n = 6, G1): 2
Weight decreased, linifanib-related AE, patients (0.25 mg/kg n = 6, G1): 1
T-wave abnormality, linifanib-related AE, patients (0.25 mg/kg n = 6, G1, dose-limiting toxicity): 1^a
Anorexia, linifanib-related AE, patients (0.25 mg/kg n = 6, G2): 2
Blood TG increased, linifanib-related AE, patients (0.25 mg/kg n = 6, G2): 1
Blood TSH increased, linifanib-related AE, patients (0.25 mg/kg n = 6, G2): 1
Diarrhea, linifanib-related AE, patients (0.25 mg/kg n = 6, G2): 2
Fatigue, linifanib-related AE, patients (0.25 mg/kg n = 6, G2): 1
Hypertension, linifanib-related AE, patients (0.25 mg/kg n = 6, G2): 6
Leukopenia, linifanib-related AE, patients (0.25 mg/kg n = 6, G2): 2
Neutropenia, linifanib-related AE, patients (0.25 mg/kg n = 6, G2): 2
Palmar-plantar erythrodysaesthesia, linifanib-related AE, patients (0.25 mg/kg n = 6, G2): 3
Proteinuria, linifanib-related AE, patients (0.25 mg/kg n = 6, G2): 2
Thrombocytopenia, linifanib-related AE, patients (0.25 mg/kg n = 6, G2): 2
Weight decreased, linifanib-related AE, patients (0.25 mg/kg n = 6, G2): 1
ALT increased, linifanib-related AE, patients (0.25 mg/kg n = 6, G3): 1
Neutropenia, linifanib-related AE, patients (0.25 mg/kg n = 6, G3): 1
Proteinuria, linifanib-related AE, patients (0.25 mg/kg n = 6, G3): 2
dose reductions or interruptions for hypertension, neutropenia, or leucopenia (18 patients): no dose reductions or interruptions
ALT increased, linifanib-related AE, patients (All patients N = 18, any grade): 10 (56) n (%)
AST increased, linifanib-related AE, patients (All patients N = 18, any grade): 13 (72) n (%)
Anorexia, linifanib-related AE, patients (All patients N = 18, any grade): 7 (39) n (%)
Blood ALKP increased, linifanib-related AE, patients (All patients N = 18, any grade): 8 (44) n (%)
Blood TG increased, linifanib-related AE, patients (All patients N = 18, any grade): 11 (61) n (%)
Blood TSH increased, linifanib-related AE, patients (All patients N = 18, any grade): 8 (44) n (%)
Blood cholesterol increased, linifanib-related AE, patients (All patients N = 18, any grade): 10 (56) n (%)
Blood urine present, linifanib-related AE, patients (All patients N = 18, any grade): 9 (50) n (%)
Diarrhea, linifanib-related AE, patients (All patients N = 18, any grade): 8 (44) n (%)
Fatigue, linifanib-related AE, patients (All patients N = 18, any grade): 9 (50) n (%)
GGT increased, linifanib-related AE, patients (All patients N = 18, any grade): 8 (44) n (%)
Hypertension, linifanib-related AE, patients (All patients N = 18, any grade): 17 n (%) and 17 (94) n (%)
Leukopenia, linifanib-related AE, patients (All patients N = 18, any grade): 10 (56) n (%)
Neutropenia, linifanib-related AE, patients (All patients N = 18, any grade): 11 (61) n (%)
Palmar-plantar erythrodysaesthesia, linifanib-related AE, patients (All patients N = 18, any grade): 9 (50) n (%)
Proteinuria, linifanib-related AE, patients (All patients N = 18, any grade): 10 (56) n (%)
Rash, linifanib-related AE, patients (All patients N = 18, any grade): 11 (61) n (%)
T-wave abnormality, linifanib-related AE, patients (All patients N = 18, any grade): 2 (11) n (%)
Thrombocytopenia, linifanib-related AE, patients (All patients N = 18, any grade): 8 (44) n (%)
Weight decreased, linifanib-related AE, patients (All patients N = 18, any grade): 10 (56) n (%)
tolerability (Japanese patients with solid tumors, dose range 0.05–0.25 mg/kg): well tolerated
number of DLTs reported (all cohorts, 18 patients): Two
Grade 4 or 5 AEs (all doses, 18 patients): no Grade 4 or 5 AEs
patients who discontinued due to AEs (of 16 who discontinued): two
